Data set [1] addresses TRPM8 receptors. As to conditions: previous in vitro studies; read-out: antagonistic potencies (IC50) for TRPM8 receptors; cited from earlier work.
Data set [2] has as its system vagus ganglion neurons (VGNs). Briefly: Ca2+ imaging (Fluo-3) of acutely dissociated vagus ganglion neurons. It counts as cell-based, rat. As for the experimental part:
In one embodiment, retrograde labeling of vagus ganglions or bronchopulmonary tissues is performed on a murine or rat model. […] Instillation of the nerve tracing dye in the lower part of mice trachea was performed and, after 7 days, the mice (or rats) were sacrificed and the vagus ganglions were harvested, dissociated, and plated in dishes. Calcium-imaging approach was then used to identify bronchopulmonary vagus afferent neuron response to cold and menthol. […] All the data were represented as mean ±SEM. Paired-t tests were used for statistical comparison, and significance was considered at the p<0.05. To perform calcium imaging, VGNs were incubated with 2 μM Fluo3-AM in 20% pluronic acid (Molecular Probes, Eugene, Oreg.) for 30 min at 37° C. to load Ca^2+ indicator. The cells were then perfused with normal bath solution flowing at 1 ml/min in a 0.5 ml chamber. The normal bath solution contained (in mM): 150 NaCl, 5 KCl, 2 MgCl2, 2 CaCl2, 10 glucose, 10 HEPES, pH 7.2, osmolarity adjusted to 320 mOsm with sucrose. Fluo-3 fluorescence in the cells was detected using a peltier-cooled charge-coupled device (CCD) camera (PentaMAX-III System, Roper Scientific, Trenton, N.J.) under a fluorescent microscope (10× objective). Excitation was at 450 nm and emission at 550 nm, achieved by a fluorescence filter sets. Images were taken at one frame per second, and digitized using MetaFluor software (Universal Imaging Corporation). Unless otherwise indicated, all experiments were carried out at an ambient temperature of 26° C. Effects of cold on intracellular Ca^2+ levels were tested by application of a cold bath solution, which yield temperature drop from 26° C. to 19° C. within 1 min in the recording chamber. […] In a related embodiment, Adult Sprague-Dawley rats (200 to 300 g, n=48) were used according to the Institutional Animal Care and Use Committee guideline of the University of Florida. The rats were continuously anesthetized with isoflurane using an anaesthetizing machine. To retrograde label the vagus ganglion neurons that innervate low airway tissues, a 20 μl-DiI was instilled into the caudal region of the trachea in living adult rats (see FIG. 1a, which illustrates the instillation of DiI into the lower segment of rat trachea to retrograde label airway VGNs). The animals were positioned supine during dye instillation and kept the same position for 30 min before recovery from anesthesia. […] The neurons were plated on glass coverslips previously covered with PDL and used within 4 hours after plating.

In data set [3] the test system is vagus ganglion neurons (VGNs). Briefly: Whole-cell patch-clamp recordings (voltage-clamp and current-clamp) on menthol-responsive VGNs. In kind it is cell-based, rat. A general note: In patch-clamp work, channel activity is measured electrically.
Data set [4] relates to rats. Briefly: Inhalation of menthol, respiratory reaction. It counts as in vivo, rat.
Data set [5] concerns the target T1, TRPM8 receptors (Rattus norvegicus, UniProt Q8R455).
T1 construct: increase in number of TRPM8-expressing neurons in cell culture when in the presence of nerve growth factor (NGF); endogenous in cells; host or cells: cultured sensory neurons
Briefly: TRPM8 expression in cultured sensory neurons in the presence of NGF. It counts as cell-based. As to conditions: NGF present. The text has this: Inflammation in lung tissues often can result in the increases the levels of nerve growth factor (NGF). […] Upregulation of TRPM8 receptors on these nerves can sensitize their responses to cold stimulation. FIGS. 8a and 8b illustrate the numbers of TRPM8 expression neurons and the responsiveness of these neurons to the TRPM8 ligand menthol. Specifically, FIG. 8a is a graphical illustration of an increase in number of TRPM8-expressing neurons in cell culture when in the presence of nerve growth factor (NGF). […] is a graphical illustration of the response of TRPM8-expressing neurons to the TRPM8 receptor agonist menthol when cultured in the presence or absence of NGF. The one day cultures were used in the absence of NGF.
Inflammatory reactions in bronchopulmonary tissues of asthma animals are known to result in an increased level of nerve growth factor (NGF). […] An up-regulation of TRPM8 receptors in inflammatory bronchopulmonary tissues will make animals more susceptible to cold.

T1 sequence (Q8R455 whole entry): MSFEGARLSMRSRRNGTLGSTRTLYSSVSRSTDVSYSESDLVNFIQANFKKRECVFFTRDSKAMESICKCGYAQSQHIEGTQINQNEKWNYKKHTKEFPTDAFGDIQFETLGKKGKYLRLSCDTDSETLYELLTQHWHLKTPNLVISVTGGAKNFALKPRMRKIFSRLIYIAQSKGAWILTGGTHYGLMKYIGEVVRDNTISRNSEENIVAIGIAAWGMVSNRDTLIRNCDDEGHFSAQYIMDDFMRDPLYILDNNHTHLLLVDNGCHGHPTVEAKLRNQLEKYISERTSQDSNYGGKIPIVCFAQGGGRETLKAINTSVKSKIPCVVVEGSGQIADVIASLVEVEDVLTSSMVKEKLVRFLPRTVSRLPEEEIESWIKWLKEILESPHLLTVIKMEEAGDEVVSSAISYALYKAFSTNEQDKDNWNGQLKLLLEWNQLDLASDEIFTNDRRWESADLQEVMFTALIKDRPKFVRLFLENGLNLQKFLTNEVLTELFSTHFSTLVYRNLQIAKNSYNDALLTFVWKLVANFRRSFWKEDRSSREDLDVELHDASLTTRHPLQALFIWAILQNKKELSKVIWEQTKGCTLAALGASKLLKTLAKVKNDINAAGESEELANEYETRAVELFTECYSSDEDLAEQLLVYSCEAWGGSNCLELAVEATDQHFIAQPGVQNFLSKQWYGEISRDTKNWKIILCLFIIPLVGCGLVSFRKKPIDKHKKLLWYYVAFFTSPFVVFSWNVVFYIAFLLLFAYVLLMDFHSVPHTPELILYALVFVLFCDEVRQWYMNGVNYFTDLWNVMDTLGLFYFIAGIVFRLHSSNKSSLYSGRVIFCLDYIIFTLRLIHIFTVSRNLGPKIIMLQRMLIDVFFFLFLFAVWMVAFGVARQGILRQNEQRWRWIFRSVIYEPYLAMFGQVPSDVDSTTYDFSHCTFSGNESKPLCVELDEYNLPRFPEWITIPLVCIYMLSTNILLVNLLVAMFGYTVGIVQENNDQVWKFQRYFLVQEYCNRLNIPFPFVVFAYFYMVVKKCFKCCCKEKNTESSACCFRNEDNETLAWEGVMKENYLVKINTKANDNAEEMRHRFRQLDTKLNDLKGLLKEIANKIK

With `NCCOB(c1ccccc1)c1ccccc1` [2-APB, 2-aminoethoxydiphenyl borate], in data set [1], the concentration for half-maximal inhibition (IC50) was approximately 50 µM.

As for `Nc1ncnc2c1ncn2[C@@H]1O[C@H](COP(=O)(O)OP(=O)(O)OP(=O)(O)O)[C@@H](O)[C@H]1O` [ATP], the “ATP sensitivity of menthol-responsive VGNs” value in data set [2] (Ca2+ imaging, menthol and ATP responses) was “almost all menthol-responsive VGNs were ATP-sensitive”.

With `CC(C)(C)c1ccc(NC(=O)N2CCN(c3ncccc3Cl)CC2)cc1` [BCTC, N-(4-Tertiarybutylphenyl)-4-(3-cholorphyridin-2-yl)tetrahydropyrazine-1(2H)-carbox-amide], the IC50 in data set [1] was 0.8 ± 1 µM.

As to `Oc1cc2c(cc1O)CN(C(=S)NCCc1ccc(Cl)cc1)CCC2` [capsazepine], the half-maximal inhibitory concentration (IC50) in data set [1] was 18 ± 1.1 µM.

For `CC1CCC(C(C)C)C(O)C1` (stereo not shown) [menthol], in data set [3] (menthol 100 μM, 20 s, current-clamp, from resting potential 60±0.6 mV, n=4), the “membrane potential after depolarization by menthol” value came out at 38±1.5 mV. In data set [3] (menthol 100 μM, 20 s, voltage-clamp, held at −70 mV, n=7), this compound yielded a menthol-evoked inward current of 191±29 pA. In addition, the action potential firing result is on record as “action potentials elicited” in data set [3] (menthol 100 μM, current-clamp) and “caused action potential firing” in data set [3] (menthol 100 μM, current-clamp, listed as Menthol). In addition, the “reversal potential of menthol-evoked currents” value in data set [3] (voltage ramp, strong outward rectification, n=4) is recorded as −2±0.3 mV. In addition, the “DiI-labeled cells both menthol- and cold-responsive” value in data set [2] (27 of 170 DiI-labeled cells, menthol 100 μM, cold 26 to 19° C.) came out at 16%. The “DiI-labeled cells showing response to menthol” value in data set [2] (menthol 100 μM, 20 s, 28 of 170 DiI-labeled cells) was found to be 17%. Further, the “VGNs with increases of intracellular Ca2+” value in data set [2] (menthol 100 μM, 20 s, 116/1638 cells, DiI-labeled and non-labeled, response ΔF/F0 >0.1) was found to be 7%. Further, the “respiratory reaction on inhalation” value in data set [4] (menthol 1 μM) is listed as “respiratory reaction is not obvious”; in data set [4] (menthol 1 mM, n=3) it was “results in a breathing difficulty”.

For `CC(C)(C)c1ccc(NC(=S)N2CCN(c3ncccc3Cl)CC2)cc1` [thio-BCTC], the half-inhibitory concentration (IC50) in data set [1] is 3.5 ± 1.1 µM.

Consider NGF: nerve growth factor, for which the TRPM8 receptor expression entry in data set [5] was “up-regulated”.

What is called IC50 is the point on the concentration scale where inhibition reaches its midpoint.

(Values after patent US20080213248A1, “Methods and Systems for Treating Asthma and Other Respiratory Diseases” (UNIVERSITY OF FLORIDA RESEARCH FOUNDATION, INC., priority 2004, published 2008).)
